Source: article PMC11834790, “Pyridine indole hybrids as novel potent CYP17A1 inhibitors” (Journal of Enzyme Inhibition and Medicinal Chemistry, 2025)
Several values for one entry are separate records, joined by “and”; a condition that tells them apart may be missing. Equal values may be shown once.

What was measured:
[1] = Alamar blue (resazurin) cell viability, RWPE-1; assay type: cell-based; settings: human, RWPE-1 cells, of the control
Protocol: (§1) LNCaP and RWPE-1 cells were plated in 96-well plates at 10 000 cells per well and incubated overnight at 37 °C with 5% CO2. VCaP cells were plated at 12 000 cells per well under the same conditions. After 24 h, the medium was replaced with fresh medium containing the compounds or abiraterone at a final concentration of 10 µM. Cells were incubated for an additional 24 and 48 h. Cell viability was measured using the Alamar Blue assay. Post-incubation, 0.05 mg/mL Alamar Blue solution in phosphate-buffered saline (PBS) was added to each well. The plates were incubated in the dark at 37 °C for 4 h, and fluorescence was measured at an excitation wavelength of 550 nm and an emission wavelength of 590 nm. Cell viability was calculated relative to control sample treated with DMSO. All experiments were conducted in triplicate.

CYP17A1 [2] = target: T1, CYP17A1 (Homo sapiens, UniProt P05093); assay: CYP17A1 17α-hydroxylase activity assay in NCI-H295R cells ([14C]-progesterone, TLC); assay type: cell-based; settings: 4 h, DMSO = 100, read-out: CYP17A1 Hydroxylase activity, Mean (percentage of activity remaining relative to the control)
T1 construct: immortalised human adrenal cells expressing CYP17A1 and other steroidogenic enzymes; endogenous in cells; host or cells: NCI-H295R (human adrenal cells)
T1 sequence (P05093 1-508): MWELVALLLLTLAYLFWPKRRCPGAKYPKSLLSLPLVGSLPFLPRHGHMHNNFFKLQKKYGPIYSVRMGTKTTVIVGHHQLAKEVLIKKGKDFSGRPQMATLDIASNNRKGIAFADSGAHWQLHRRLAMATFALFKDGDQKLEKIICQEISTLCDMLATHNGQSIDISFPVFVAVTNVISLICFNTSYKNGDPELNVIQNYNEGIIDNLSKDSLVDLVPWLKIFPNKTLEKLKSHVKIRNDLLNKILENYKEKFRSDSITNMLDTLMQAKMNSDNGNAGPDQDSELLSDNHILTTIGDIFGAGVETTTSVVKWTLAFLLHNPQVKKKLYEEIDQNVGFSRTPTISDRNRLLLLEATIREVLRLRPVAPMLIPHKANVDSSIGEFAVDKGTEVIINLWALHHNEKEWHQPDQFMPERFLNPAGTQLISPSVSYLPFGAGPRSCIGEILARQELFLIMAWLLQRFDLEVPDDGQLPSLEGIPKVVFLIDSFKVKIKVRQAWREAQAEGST
Protocol: (§2) Human adrenal NCI-H295R cells are an established model for assay of CYP17A1 activities. The NCI-H295R cells were seeded in 12-well plates at 500 000 cells per well and incubated overnight. On the following day, 10 µM of test compounds were added to the wells with fresh medium and incubated for 4 h. Abiraterone was used as a reference, and DMSO was included as a control. For assessing CYP17A1 hydroxylase activity, cells were treated with [^14C]-Progesterone at 10 000 cpm/1 µM per well. Trilostane was added prior to the test compounds and substrate to inhibit 3β-hydroxysteroid dehydrogenase activity so that a clean assay of only CYP17A1 activity could be performed[20]^,[27]^,[28]. Radiolabeled steroids were extracted from the media using a mixture of ethyl acetate and isooctane (1:1 v/v) and separated by Thin Layer Chromatography (TLC) on silica gel-coated aluminium plates (Supelco® Analytics, Sigma-Aldrich Chemie GmbH, Taufkirchen, Germany). TLC spots were visualised on a phosphor screen and detected by autoradiography using a Typhoon™ FLA-7000 PhosphorImager (GE Healthcare, Uppsala, Sweden). Radioactivity was quantified with ImageQuant™ TL analysis software (GE Healthcare Europe GmbH, Freiburg, Germany), and enzyme activity was expressed as the percentage of radioactivity incorporated into the product relative to the total radioactivity. For CYP17A1 lyase activity, cells were exposed to 50 000 cpm/1 µM [21-^3H]-17α-hydroxypregnenolone per well under similar conditions. The tritiated water release assay was used to measure the conversion of 17OH-Pregnenolone to DHEA. Steroids in the media were precipitated using a 5% activated charcoal/0.5% dextran solution. Enzyme activity was evaluated based on the water-soluble tritiated by-product formed in equimolar amounts with DHEA, with radioactivity in the aqueous phase quantified by liquid scintillation counting (MicroBeta2® Plate Counter, PerkinElmer Inc., Waltham, MA, USA). Percent inhibition was calculated relative to control samples.

CYP17A1 [3] = target: T1, CYP17A1; assay: CYP17A1 17,20-lyase activity assay in NCI-H295R cells (tritiated water release); assay type: cell-based; settings: 4 h, DMSO = 100, read-out: CYP17A1 Lyase activity, Mean (percentage of activity remaining relative to the control)
Protocol: as §2

DU-145 cells = assay: Scratch (wound healing) assay; assay type: cell-based, human; settings: DU-145, 10 µM; for Wound area, Mean (area remaining open): 24 h, DMSO 170.5; for Effect on cell migration (in words): after 24 h
Protocol: Human prostate cancer DU-145 cells show strong cell proliferation and therefore, are an established model for assay of antiproliferative effects of test compounds. DU-145 cells were plated in 24-well plates at 50 000 cells per well and grown until they reached 85% confluence. To inhibit cell proliferation, cells were treated with 5 µg/mL mitomycin for 2 h. A wound was created using a 10 µL pipette tip. The cells were then exposed to drugs at a concentration of 10 µM, while control wells received DMSO. Wound closure was observed and photographed using an optical microscope after 24 h. Images were analysed using ImageJ software (version 1.54j).

LNCaP cells = assay: Alamar blue (resazurin) cell viability, LNCaP; assay type: cell-based, human; settings: 10 µM, 24 and 48 h
Protocol: as §1

VCaP cells = assay: Alamar blue (resazurin) cell viability, VCaP; assay type: cell-based, human; settings: for Cytotoxic effect on VCaP cells (in words): 10 µM, 24 and 48 h
Protocol: as §1

CYP17A1 [4] = target: T1, CYP17A1; assay: CYP17A1 17,20-lyase activity assay in NCI-H295R cells (tritiated water release); assay type: cell-based; settings: dose-response, read-out: IC50, inhibition of 17,20-lyase activity
CYP17A1 [5] = target: T1, CYP17A1; assay: CYP17A1 activity calculated as ratios of steroid products to substrates (LC-MS); assay type: cell-based; settings: normalised to DMSO-treated cells (100%), NCI-H295R
Protocol: (§3) Steroid quantification was performed using Liquid Chromatography–Mass Spectrometry (LC-MS), following established protocols to study effect of compounds on adrenal steroidogenesis. Human adrenal NCI-H295R cells were seeded in 12-well plates at 500 000 cells per well and treated with fresh growth medium containing the test compounds for 4 h. Subsequently, 1 µM pregnenolone was added and incubated for an additional 4 h. Steroids were extracted from 500 µL aliquots of cell media, separated, and quantified according to the referenced methodology.
To provide deeper insights into CYP17A1 inhibition, the enzyme activity was calculated using ratios of steroid products to substrates, focusing on dual activities of CYP17A1 (Figure 4(B)).

[6] = system: adrenal steroidogenesis in NCI-H295R cells; assay: Steroid profiling by LC-MS in NCI-H295R cells; assay type: cell-based, human; settings: for Androsterone, Mean / Testosterone, Mean / Progesterone, Mean / Androstendione, Mean / 17a-Hydroxyprogesterone, Mean / DHEA, Mean / 11-Deoxycortisol, Mean / 11-Deoxycorticosterone, Mean / Pregnenolone, Mean / Cortisone, Mean / DHEA-S, Mean / Dihydrotestosterone, Mean: compounds at 10 µM; for Androsterone, Mean / Testosterone, Mean / Progesterone, Mean / Androstendione, Mean / 17a-Hydroxyprogesterone, Mean / DHEA, Mean / 11-Deoxycortisol, Mean / 11-Deoxycorticosterone, Mean / Pregnenolone, Mean: 1 µM pregnenolone; for Androsterone, Mean / Cortisone, Mean / DHEA-S, Mean / Dihydrotestosterone, Mean: DMSO 0; for Testosterone, Mean: DMSO 0.4785; for Progesterone, Mean: DMSO 4.814; for Androstendione, Mean: DMSO 7.577; for 17a-Hydroxyprogesterone, Mean: DMSO 9.967; for DHEA, Mean: DMSO 15.119; for 11-Deoxycortisol, Mean: DMSO 26.594; for 11-Deoxycorticosterone, Mean: DMSO 28.1555; for Pregnenolone, Mean: DMSO 2043.56; for Cortisone, Mean / DHEA-S, Mean / Dihydrotestosterone, Mean: not detected within the experimental timeframe
Protocol: as §3

Structure (SMILES) | viability at 48 h, 10 µM [1] [%] | remaining activity at 10 µM (CYP17A1 [2]) [%] | remaining activity at 10 µM (CYP17A1 [3]) [%] | Wound area, Mean (area remaining open) (DU-145 cells) [Pixels^2] | Effect on cell migration (in words) (DU-145 cells) | Cytotoxic effect on LNCaP cells (in words) (LNCaP cells) | Cytotoxic effect on VCaP cells (in words) (VCaP cells) | 17α-Hydroxylase activity (ratios of steroid products to substrates) (CYP17A1 [5]) [%] | Androsterone, Mean [6] [nmol/L] | Testosterone, Mean [6] [nmol/L] | Progesterone, Mean [6] [nmol/L] | Androstendione, Mean [6] [nmol/L] | 17a-Hydroxyprogesterone, Mean [6] [nmol/L] | DHEA, Mean [6] | 11-Deoxycortisol, Mean [6] [nmol/L] | 11-Deoxycorticosterone, Mean [6] [nmol/L] | Pregnenolone, Mean [6] [nmol/L] | Cortisone, Mean [6] [nmol/L] | DHEA-S, Mean [6] [nmol/L] | Dihydrotestosterone, Mean [6] [nmol/L] | also measured
c1cncc(-c2cccc(-c3ccc4[nH]ccc4c3)c2)c1 [Compound 12, 5-(3-(Pyridin-3-yl)phenyl)-1H-indole] | 85 | 46 | 48.7 |  |  |  |  |  |  |  |  |  |  |  |  |  |  |  |  |  | 
N#Cc1c(-c2ccncc2)cc(-c2ccc3[nH]ccc3c2)c(C#N)c1N [Compound 11, 2-Amino-4-(1H-indol-5-yl)-6-(pyridin-4-yl)isophthalonitrile] |  | 10 | 49.2 | 8703 | significant inhibition of cell migration | did not exhibit high cytotoxic effects | did not exhibit high cytotoxic effects | 1 | 1.176 | 0.4775 | 67.3265 | 1.3725 | 1.3575 | 1.36 nmol/L and 1.3585 nmol/L | 3.942 | 3.8565 | 2465.505 | 0 | 0 | 0 | IC50 (CYP17A1 [4]): 4 nM; Reduction of DHEA level ([6]; vs DMSO control): 11 fold
C[C@]12CC[C@H](O)CC1=CC[C@@H]1[C@@H]2CC[C@]2(C)C(c3cccnc3)=CC[C@@H]12 [ABT, abiraterone, reference compound] | 66 | 14 | 24 | 935 |  | notable reduction in cell viability | notable reduction in cell viability | 15.2 | 0 | 0.5005 | 3.809 | 1.5465 | 1.202 | 2.775 nmol/L | 3.585 | 2.6135 | 2279.668 | 0 | 0 | 0 | viability at 24 h, 10 µM ([1]; 24 h): 84%; Combined 17α-hydroxylase and 17,20-lyase activity (ratios of steroid products to substrates) (CYP17A1 [5]): ~16.3%
N#Cc1c(-c2ccncc2)cc(-c2ccc3[nH]ccc3c2)nc1N [Compound 5, 2-Amino-6-(1H-indol-5-yl)-[4,4′-bipyridine]-3-carbonitrile] |  | 20 | 39.7 | 1916 | less pronounced effect comparable to that exerted by abiraterone | marked reduction in viability |  | 1.7 | 0.009 | 0.5215 | 39.9815 | 1.4095 | 1.3865 | 0.748 nmol/L | 4.0415 | 5.503 | 2578.994 | 0 | 0 | 0 | viability at 10 µM (VCaP cells; Homo sapiens, VCaP, 24 h): < 50%; IC50 (CYP17A1 [4]): 25 nM
